Measurements: the NIST ThermoML archive (doi:10.1021/je400498a)
± gives the expanded uncertainty stated by the source.

Experiments:
[1] = for vapor or sublimation pressure: 298.15 K, Gas chromatography
[2] = Molar enthalpy of transition or fusion; details: Crystal; DSC

vapor or sublimation pressure ([1]; Crystal) [kPa]	Molar enthalpy of transition or fusion [2] [kcal/mol]	Normal melting temperature ([1]; Crystal, DTA) [°C]	SMILES	vapor or sublimation pressure ([1]; Liquid) [kPa]
–	–	–	N[C@@H]1C[C@H]1c1ccccc1 (relative stereo) [trans-2-phenylcyclopropylamine]	0.028 ± 0.01
–	–	–	CC(N)C12CC3CC(CC(C3)C1)C2 (centres undefined) [1-(adamantan-1-yl)ethan-1-amine]	0.003 ± 0.002
0.0016 ± 0.0002	–	–	CCCCCCCCCCCCN [1-dodecanamine]	–
0.00012 ± 8e-05	–	–	CCCCCCCCCCCCCCN [1-tetradecanamine]	–
–	–	–	CC(C)(N)Cc1ccccc1 [2-methyl-1-phenylpropan-2-amine]	0.035 ± 0.008
0.0115 ± 0.0043	1.74 ± 0.12	204.2 ± 1.8	NC12CC3CC(CC(C3)C1)C2 [tricyclo(3.3.1.1:3,7)decan-1-amine]	0.021 ± 0.003
